Experimental data from US20230165865A1, “HETEROARYLDIHYDROPYRIMIDINE DERIVATIVES AND METHODS OF TREATING HEPATITIS B INFECTIONS” (Janssen Pharmaceutica NV, priority 2018, published 2023).
Read-outs that look alike come from different tables or passages of the source.

Tests used:
[1] = Cytotoxicity determination in HepG2.2.15 cells (CCK-8 assay); assay type: cell-based; details: human, 6 days treatment, CCK-8, highest concentration 100 uM
Procedure: (§1) HepG2.2.15 (the HepG2.2.15 cell line can be produced by transfection of the HepG2 cell line as described in Sells, Chen, and Acs 1987 (Proc. Natl. Acad. Sci. USA 84: 1005-1009), and the HepG2 cell line is available from ATCC® under number HB-8065™)
(§2) HepG2.2.15 cells were plated into 96-well plate in 2% FBS culture medium at the density of 40,000 cells/well and 5,000cells/well for HBV inhibitory activity and cytotoxicity determination, respectively. After incubation at 37° C., 5% CO2 overnight, cells were treated with medium containing compounds for 6 days with medium and compounds refreshed after 3 days of treatment. Each compound was tested in a 1:3 serial dilutions at 8 different concentrations in triplicate. The highest concentration of the compounds was 10 uM or 1 uM for anti-HBV activity assay and 100 uM for cytotoxicity determination.
Cell viability was determined by CCK-8 assay. After 6 days of compounds treatment, 20 μl CCK-8 reagents were added to each well of cytotoxicity assay plates. Cell plates were incubated at 37° C., 5% CO2 for 2.5 h. The absorbance at 450 nm wavelength and the absorbance at 630 nm wavelength as reference was measured.
(§3) EC50 and CC50 values are calculated by the […] PRISM software.

HBV = assay: Anti-viral assay in HepG2.2.15 cells: anti-HBV activity, HBV DNA in culture medium by qPCR; assay type: cell-based
Procedure: as §1, §2
The change of HBV DNA level induced by the compounds was assessed by quantitative real-time polymerase chain reaction (qPCR). Briefly, the HBV DNA in the culture medium was extracted using QIAamp 96 DNA Blood Kit according to the manual and then quantified by real-time PCR assay using the primers and probe in the table 1 below.
as §3

[2] = Hepatitis B virus, HepG2.2.15, 144 h, HepG2.2.15 cells, 6 days treatment, HBV DNA by qPCR, read-out: EC50

| SMILES | CC50 at 6 days [1] | EC50 (HBV; [2]) | EC50 (HBV; HepG2.2.15 cells, 6 days treatment, HBV DNA by qPCR, read-out: EC50) | EC50 (HBV; Hepatitis B virus, HepG2.2.15, 144 h) |
| --- | --- | --- | --- | --- |
| COC(=O)C1=C(CN2CCN3C(=S)N(CC(C)(C)C(=O)O)CC3C2)NC(c2ncoc2C)=NC1c1cccc(F)c1C (single isomer, unassigned) [Compound 31A, 3-(7-((6-(3-Fluoro-2-methylphenyl)-5-(methoxycarbonyl)-2-(5-methyloxazol-4-yl)-3,6-dihydropyrimidin-4-yl)methyl)-3-thioxohexahydroimidazo[1,5-a]pyrazin-2(3H)-yl)-2,2-dimethylpropanoic acid] | 43700 nM | 15 nM | – | – |
| CCOC(=O)C1=C(CN2CCN3C(=S)N(CC(CC)C(=O)O)CC3C2)NC(c2nccs2)=N[C@H]1c1cccc(F)c1C (stereo partly drawn) [Compound 17, 2-((7-(((S)-5-(ethoxycarbonyl)-6-(3-fluoro-2-methylphenyl)-2-(thiazol-2-yl)-3,6-dihydropyrimidin-4-yl)methyl)-3-thioxohexahydroimidazo[1,5-a]pyrazin-2(3H)-yl)methyl)butanoic acid] | 13200 nM | 5.6 nM | – | – |
| CCOC(=O)C1=C(CN2CCN3C(=S)N(CC(C)(C)C(=O)O)CC[C@@H]3C2)NC(c2nccs2)=N[C@H]1c1cccc(F)c1C [Compound 6A, 3-((R)-2-(((S)-5-(ethoxycarbonyl)-6-(3-fluoro-2-methylphenyl)-2-(thiazol-2-yl)-3,6-dihydropyrimidin-4-yl)methyl)-6-thioxohexahydro-2H-pyrazino[1,2-c]pyrimidin-7(6H)-yl)-2,2-dimethylpropanoic acid] | 11400 nM | 19.4 nM | – | – |
| CCOC(=O)C1=C(CN2CCN3C(=S)N(c4ccc(C(=O)O)cc4)CC3C2)NC(c2nccs2)=N[C@H]1c1cccc(F)c1C (stereo in doubt) [Compound 23, 4-(7-((5-(ethoxycarbonyl)-6-(3-fluoro-2-methylphenyl)-2-(thiazol-2-yl)-3,6-dihydropyrimidin-4-yl)methyl)-3-thioxohexahydroimidazo[1,5-a]pyrazin-2(3H)-yl)benzoic acid] | 2600 nM | 4.6 nM | – | – |
| CCOC(=O)C1=C(CN2CCN3C(=S)N(C(C)(C)CC(=O)O)CC3C2)NC(c2nccs2)=N[C@H]1c1cccc(F)c1C (single isomer, unassigned) [Compound 30A] | 8600 nM | 5 nM | – | – |
| CCOC(=O)C1=C(CN2CCN3C(=S)N(CCC(C)(C)C(=O)O)CC3C2)NC(c2nccs2)=N[C@H]1c1cccc(F)c1C (stereo partly drawn) [Compound 28, 4-(7-(((S)-5-(ethoxycarbonyl)-6-(3-fluoro-2-methylphenyl)-2-(thiazol-2-yl)-3,6-dihydropyrimidin-4-yl)methyl)-3-thioxohexahydroimidazo[1,5-a]pyrazin-2(3H)-yl)-2,2-dimethylbutanoic acid] | 10900 nM | 5.8 nM | – | – |
| CCOC(=O)C1=C(CN2CCN3C(=S)N(CC(C)C(=O)O)C[C@@H]3C2)NC(c2nccs2)=N[C@H]1c1cccc(F)c1C (single isomer, unassigned) [Compound 27A] | 23600 nM | 4.8 nM | – | – |
| COC(=O)C1=C(CN2CCN3C(=S)N(CC(C)(C)C(=O)O)CC3C2)NC(c2nccs2)=NC1c1ccc(F)c(F)c1C (single isomer, unassigned) [Compound 12B, 3-(7-((6-(3,4-Difluoro-2-methylphenyl)-5-(methoxycarbonyl)-2-(thiazol-2-yl)-3,6-dihydropyrimidin-4-yl)methyl)-3-thioxohexahydroimidazo[1,5-a]pyrazin-2(3H)-yl)-2,2-dimethylpropanoic acid] | 14500 nM | 2 nM | – | – |
| CCOC(=O)C1=C(CN2CCN3C(=S)N(CC(C)(C)C(=O)O)CC3C2)NC(c2nccs2)=NC1c1ccc(F)c(F)c1Cl (single isomer, unassigned) [Compound 14A, 3-(7-((6-(2-Chloro-3,4-difluorophenyl)-5-(ethoxycarbonyl)-2-(thiazol-2-yl)-3,6-dihydropyrimidin-4-yl)methyl)-3-thioxohexahydroimidazo[1,5-a]pyrazin-2(3H)-yl)-2,2-dimethylpropanoic acid] | 9600 nM | 1.2 nM | – | – |
| CCOC(=O)C1=C(CN2CCN3C(=S)N(C)C[C@@H]3[C@H]2C(=O)O)NC(c2nccs2)=N[C@H]1c1cccc(F)c1Cl (single isomer, unassigned) [Compound 19B, (trans)-7-((6-(2-chloro-3-fluorophenyl)-5-(ethoxycarbonyl)-2-(thiazol-2-yl)-3,6-dihydropyrimidin-4-yl)methyl)-2-methyl-3-thioxooctahydro-imidazo[1,5-a]pyrazine-8-carboxylic acid] | 51200 nM | 1.8 nM | – | – |
| CCOC(=O)C1=C(CN2CCN3C(=S)N([C@H]4CC[C@@H](C(=O)O)C4)CC3C2)NC(c2nccs2)=N[C@H]1c1cccc(F)c1C (single isomer, unassigned) [Compound 24C] | 11600 nM | – | 1.4 nM | – |
| CCOC(=O)C1=C(CN2CCN3C(=NC(C)=O)N(CC(C)(C)C(=O)O)CC3C2)NC(c2nccs2)=N[C@H]1c1cccc(F)c1C (stereo partly drawn) [Compound 8, (S)-3-(3-(Acetylimino)-7-((5-(ethoxycarbonyl)-6-(3-fluoro-2-methylphenyl)-2-(thiazol-2-yl)-3,6-dihydropyrimidin-4-yl)methyl)hexahydroimidazo[1,5-a]pyrazin-2(3H)-yl)-2,2-dimethylpropanoic acid] | > 100000 nM | – | – | 790 nM |
| COC(=O)C1=C(CN2CCN3C(=S)N(CC(C)(C)C(=O)O)C[C@@H]3C2)NC(c2nccs2)=N[C@@H]1c1ccc(F)cc1Br (single isomer, unassigned) [Compound 16A, 3-(7-((6-(2-Bromo-4-fluorophenyl)-5-(methoxycarbonyl)-2-(thiazol-2-yl)-3,6-dihydropyrimidin-4-yl)methyl)-3-thioxohexahydroimidazo[1,5-a]pyrazin-2(3H)-yl)-2,2-dimethylpropanoic acid] | 15300 nM | 4.5 nM | – | – |
| CCOC(=O)C1=C(CN2CCN3C(=NC#N)N(CC(C)(C)C(=O)O)CC3C2)NC(c2nccs2)=N[C@H]1c1cccc(F)c1C (stereo partly drawn) [Compound 2, 3-(3-(cyanoimino)-7-(((S)-5-(ethoxycarbonyl)-6-(3-fluoro-2-methylphenyl)-2-(thiazol-2-yl)-3,6-dihydropyrimidin-4-yl)methyl)hexahydroimidazo[1,5-a]pyrazin-2(3H)-yl)-2,2-dimethylpropanoic acid] | 55400 nM | 49 nM | – | – |
| CCOC(=O)C1=C(CN2CCN3C(=S)N(CC(C)(C)C(=O)O)CC[C@H]3C2)NC(c2nccs2)=N[C@H]1c1cccc(F)c1C [Compound 6, 3-((S)-2-(((S)-5-(ethoxycarbonyl)-6-(3-fluoro-2-methylphenyl)-2-(thiazol-2-yl)-3,6-dihydropyrimidin-4-yl)methyl)-6-thioxohexahydro-2H-pyrazino[1,2-c]pyrimidin-7(6H)-yl)-2,2-dimethylpropanoic acid] | 20500 nM | 67 nM | – | – |
| COC(=O)C1=C(CN2CCN3C(=S)N(CC(C)(C)C(=O)O)C[C@@H]3C2)NC(c2nccs2)=N[C@H]1c1cccc(F)c1Cl (single isomer, unassigned) [Compound 20A, 3-(7-((6-(2-chloro-3-fluorophenyl)-5-(methoxycarbonyl)-2-(thiazol-2-yl)-3,6-dihydropyrimidin-4-yl)methyl)-3-thioxohexahydroimidazo[1,5-a]pyrazin-2(3H)-yl)-2,2-dimethylpropanoic acid] | 16400 nM | 3.5 nM | – | – |
